Converted amounts (≈) assume the structure as drawn. The source made the active and inactive calls. The calls are words filed in the database; no cut-off is given here.
Experiments:
[1] = test system: Staphylococcus aureus; assay: Antibacterial activity against methicillin-resistant Staphylococcus aureus ATCC 33592 after 24 hrs by broth micro-dilution method; type: functional; settings: ATCC 33592, 24 h
[2] = test system: Staphylococcus epidermidis; assay: Antibacterial activity against multidrug-resistant Staphylococcus epidermidis RP62A after 24 hrs by broth micro-dilution method; type: functional
[3] = test system: Escherichia coli; assay: Antibacterial activity against Escherichia coli JM109 after 24 hrs by broth micro-dilution method; type: functional; settings: JM109, 24 h
[4] = test system: Candida albicans; assay: Antifungal activity against Candida albicans ATCC 10231 after 48 hrs by broth micro-dilution method; type: functional; settings: ATCC 10231, 48 h
[5] = test system: Klebsiella pneumoniae; assay: Antibacterial activity against Klebsiella pneumoniae ATCC 13383 after 24 hrs by broth micro-dilution method; type: functional; settings: ATCC 13383, 24 h
[6] = test system: Staphylococcus aureus; assay: Antibacterial activity against methicillin-resistant Staphylococcus aureus ATCC 33592 assessed as lipid membrane depolarization after 10 mins by DiSC3-5 staining-based fluorescence analysis; type: functional, organism-based
[7] = Toxicity in human RBC assessed as hemolysis after 1 hr; type: cell-based, Erythrocyte; settings: for HC10: erythrocyte, 1 h; for HC50 at 1 h: red blood cells
[8] = test system: Bacillus subtilis; assay: Antibacterial activity against Bacillus subtilis BR151 after 24 hrs by broth micro-dilution method; type: functional; settings: BR151, 24 h
[9] = test system: Pseudomonas aeruginosa; assay: Antibacterial activity against multidrug-resistant Pseudomonas aeruginosa ATCC 27853 after 24 hrs by broth micro-dilution method; type: functional; settings: ATCC 27853, 24 h
[10] = Selectivity ratio of HC50 for human RBC to MIC for methicillin-resistant Staphylococcus aureus ATCC 33592; type: functional
[11] = test system: Enterococcus faecalis; assay: Antibacterial activity against vancomycin-resistant Enterococcus faecalis ATCC 700802 after 24 hrs by broth micro-dilution method; type: functional; settings: ATCC 700802, 24 h
[12] = test system: Bacillus subtilis; assay: Antibacterial activity against Bacillus subtilis BR151 assessed as membrane disruption at 10 ug/ml after 2 hrs by propidium iodide staining-based fluorescence microscopic analysis; type: functional, organism-based
[13] = test system: Bacillus subtilis; assay: Antibacterial activity against Bacillus subtilis BR151 assessed as loss membrane potential at 10 ug/ml; type: functional, organism-based
[14] = test system: Escherichia coli; assay: Antibacterial activity against Escherichia coli JM109 assessed as membrane disruption at 10 ug/ml after 2 hrs by propidium iodide staining-based fluorescence microscopic analysis; type: functional, organism-based
[15] = test system: Escherichia coli; assay: Antibacterial activity against Escherichia coli JM109 assessed as membrane disruption at 10 ug/ml after 2 hrs by DAPI staining-based fluorescence microscopic analysis; type: functional, organism-based
[16] = test system: Escherichia coli; assay: Antibacterial activity against Escherichia coli JM109 assessed as loss membrane potential at 10 ug/ml; type: functional, organism-based
[17] = test system: Bacillus subtilis; assay: Antibacterial activity against Bacillus subtilis BR151 assessed as membrane disruption at 10 ug/ml after 2 hrs by DAPI staining-based fluorescence microscopic analysis; type: functional, organism-based
[18] = test system: Staphylococcus aureus; assay: Resistance ratio, MIC for methicillin-resistant Staphylococcus aureus ATCC 33592 grown on half-MIC concentration for 3 passages to MIC for methicillin-resistant Staphylococcus aureus ATCC 33592 after 24 hrs; type: functional

Structure (SMILES)	MIC [1]	MIC [2]	MIC [3]	MIC [4]	MIC [5]	Activity [6]	HC10 [7]	HC50 at 1 h [7]	MIC [8]	MIC [9]	Ratio [10]	MIC [11]	Activity [12]	Activity [13]	Activity [14]	Activity [15]	Activity [16]	Activity [17]	Ratio [18]
CCCCCCCCCCCCCCCC(=O)N[C@@H](CCCCN)CN(CC(=O)N[C@@H](CCCCN)CN(CC(N)=O)C(=O)CCCN)C(=O)CCCN	5 µg/mL (≈ 6.51 µM)	2.5 µg/mL (≈ 3.25 µM)	30 µg/mL (≈ 39.1 µM)	2 µg/mL (≈ 2.6 µM)	20 µg/mL (≈ 26 µM)	Active	40 µg/mL	300 µg/mL	1.5 µg/mL (≈ 1.95 µM)	20 µg/mL (≈ 26 µM)	60	8 µg/mL (≈ 10.4 µM)	–	–	–	–	–	–	–
CCCCCCCCCCCCCCCC(=O)N[C@@H](CCCCN)CN(CC(=O)N[C@@H](CCCCN)CN(CC(=O)N[C@@H](CCCCN)CN(CC(N)=O)C(=O)CCCN)C(=O)CCCN)C(=O)CCCN	5 µg/mL (≈ 4.88 µM)	2 µg/mL (≈ 1.95 µM)	20 µg/mL (≈ 19.5 µM)	2 µg/mL (≈ 1.95 µM)	> 50 µg/mL	Active	300 µg/mL	> 500 µg/mL	1.5 µg/mL (≈ 1.46 µM)	15 µg/mL (≈ 14.6 µM)	> 100	10 µg/mL (≈ 9.76 µM)	–	–	–	–	–	–	–
CCCCCCCC/C=C\CCCCCCCC(=O)N[C@@H](CCCCN)CN(CC(N)=O)C(=O)CCCN	4 µg/mL (≈ 7.44 µM)	2 µg/mL (≈ 3.72 µM)	2.5 µg/mL (≈ 4.65 µM)	2 µg/mL (≈ 3.72 µM)	35 µg/mL (≈ 65.1 µM)	Active	40 µg/mL	100 µg/mL	2 µg/mL (≈ 3.72 µM)	3 µg/mL (≈ 5.58 µM)	25	2.5 µg/mL (≈ 4.65 µM)	–	–	–	–	–	–	–
CC(C)C[C@@H](CN(CC(=O)N[C@@H](CCCCN)CN(CC(N)=O)C(=O)CCc1ccccc1)C(=O)CCc1ccccc1)NC(=O)CN(C[C@H](CCCCN)NC(=O)CN(C[C@H](CCCCN)NC(=O)CN(C[C@H](CC(C)C)NC(=O)CN(C[C@H](CCCCN)NC(=O)CN(C[C@@H](N)CCCCN)C(=O)CCc1ccccc1)C(=O)CCc1ccccc1)C(=O)CCc1ccccc1)C(=O)CCc1ccccc1)C(=O)CCc1ccccc1	5 µg/mL (≈ 2.37 µM)	5 µg/mL (≈ 2.37 µM)	3 µg/mL (≈ 1.42 µM)	8 µg/mL (≈ 3.79 µM)	5 µg/mL (≈ 2.37 µM)	–	75 µg/mL	300 µg/mL	2 µg/mL (≈ 0.947 µM)	> 50 µg/mL	60	5 µg/mL (≈ 2.37 µM)	–	–	–	–	–	–	–
CCCCCCCCCCCC(=O)N[C@@H](CCCCN)CN(CC(N)=O)C(=O)CCCN	> 50 µg/mL	> 50 µg/mL	> 50 µg/mL	> 50 µg/mL	> 50 µg/mL	–	400 µg/mL	> 500 µg/mL	> 50 µg/mL	> 50 µg/mL	–	> 50 µg/mL	–	–	–	–	–	–	–
CCCCCCCC/C=C\CCCCCCCC(=O)N[C@@H](CCCCN)CN(CC(=O)N[C@@H](CCCCN)CN(CC(N)=O)C(=O)CCCN)C(=O)CCCN	5 µg/mL (≈ 6.3 µM)	4 µg/mL (≈ 5.04 µM)	10 µg/mL (≈ 12.6 µM)	2 µg/mL (≈ 2.52 µM)	15 µg/mL (≈ 18.9 µM)	Active	250 µg/mL	> 500 µg/mL	2.5 µg/mL (≈ 3.15 µM)	3 µg/mL (≈ 3.78 µM)	> 100	5 µg/mL (≈ 6.3 µM)	–	–	–	–	–	–	–
CC(=O)N(CC(=O)N[C@@H](C)CN(CC(=O)N[C@@H](CC(C)C)CN(CC(=O)N[C@@H](CC(C)C)CN(CC(=O)N[C@@H](CC(C)C)CN(CC(N)=O)C(=O)CCCN)C(=O)CCCN)C(=O)CCCN)C(C)=O)C[C@H](C)N	> 100 µg/mL	> 100 µg/mL	> 100 µg/mL	> 100 µg/mL	> 100 µg/mL	–	120 µg/mL	> 500 µg/mL	> 100 µg/mL	> 100 µg/mL	–	> 100 µg/mL	–	–	–	–	–	–	–
CCCCCCCCCCCCCCCC(=O)N[C@@H](CCCCN)CN(CC(N)=O)C(=O)CCCN	2.5 µg/mL (≈ 4.88 µM)	2 µg/mL (≈ 3.91 µM)	2.5 µg/mL (≈ 4.88 µM)	2 µg/mL (≈ 3.91 µM)	35 µg/mL (≈ 68.4 µM)	Active	25 µg/mL	40 µg/mL	1.5 µg/mL (≈ 2.93 µM)	10 µg/mL (≈ 19.5 µM)	16	2.5 µg/mL (≈ 4.88 µM)	–	–	–	–	–	–	–
CCCCCCCC/C=C\CCCCCCCC(=O)N[C@@H](C)CN(CC(=O)N[C@@H](C)CN(CC(=O)N[C@@H](CC(C)C)CN(CC(=O)N[C@@H](CC(C)C)CN(CC(=O)N[C@@H](CC(C)C)CN(CC(N)=O)C(=O)CCCN)C(=O)CCCN)C(=O)CCCN)C(C)=O)C(C)=O	3 µg/mL (≈ 2.28 µM)	3 µg/mL (≈ 2.28 µM)	3 µg/mL (≈ 2.28 µM)	3 µg/mL (≈ 2.28 µM)	3 µg/mL (≈ 2.28 µM)	Active	100 µg/mL	> 500 µg/mL	3 µg/mL (≈ 2.28 µM)	3 µg/mL (≈ 2.28 µM)	> 167	4 µg/mL (≈ 3.04 µM)	Active	Active	Active	Active	Active	Active	–
CCCCCCCCCCCCCCCC(=O)N[C@@H](C)CN(CC(=O)N[C@@H](C)CN(CC(=O)N[C@@H](CCC(=O)O)CN(CC(=O)N[C@@H](CCC(=O)O)CN(CC(=O)N[C@@H](CCC(=O)O)CN(CC(N)=O)C(=O)CC(=O)O)C(=O)CC(=O)O)C(=O)CC(=O)O)C(C)=O)C(C)=O	> 100 µg/mL	> 100 µg/mL	> 100 µg/mL	> 100 µg/mL	> 100 µg/mL	–	250 µg/mL	> 500 µg/mL	> 100 µg/mL	> 100 µg/mL	–	> 100 µg/mL	–	–	–	–	–	–	–
CCn1cc(C(=O)O)c(=O)c2cc(F)c(N3CCNCC3)cc21 [NORFLOXACIN]	–	–	–	–	–	–	–	–	–	–	–	–	–	–	–	–	–	–	>20
CCCCCCCCCCCCCCCC(=O)N[C@@H](C)CN(CC(=O)N[C@@H](C)CN(CC(=O)N[C@@H](Cc1ccccc1)CN(CC(=O)N[C@@H](Cc1ccccc1)CN(CC(=O)N[C@@H](Cc1ccccc1)CN(CC(N)=O)C(=O)CC(=O)O)C(=O)CC(=O)O)C(=O)CC(=O)O)C(C)=O)C(C)=O	> 100 µg/mL	> 100 µg/mL	> 100 µg/mL	> 100 µg/mL	> 100 µg/mL	–	200 µg/mL	> 500 µg/mL	> 100 µg/mL	> 100 µg/mL	–	> 100 µg/mL	–	–	–	–	–	–	–
CCCCCCCCCCCCCCCC(=O)N[C@@H](C)CN(CC(=O)N[C@@H](C)CN(CC(=O)N[C@@H](CCCCN)CN(CC(=O)N[C@@H](CCCCN)CN(CC(=O)N[C@@H](CCCCN)CN(CC(N)=O)C(=O)CCCN)C(=O)CCCN)C(=O)CCCN)C(C)=O)C(C)=O	10 µg/mL (≈ 7.48 µM)	10 µg/mL (≈ 7.48 µM)	2.5 µg/mL (≈ 1.87 µM)	7.5 µg/mL (≈ 5.61 µM)	15 µg/mL (≈ 11.2 µM)	Active	200 µg/mL	> 500 µg/mL	2.5 µg/mL (≈ 1.87 µM)	15 µg/mL (≈ 11.2 µM)	> 50	10 µg/mL (≈ 7.48 µM)	–	–	–	–	–	–	–
CCCCCCCC/C=C\CCCCCCCC(=O)N[C@@H](CCCCN)C(=O)N[C@@H](CCCCN)CN(CC(N)=O)C(=O)CCCN	5 µg/mL (≈ 7.51 µM)	2 µg/mL (≈ 3 µM)	10 µg/mL (≈ 15 µM)	5 µg/mL (≈ 7.51 µM)	40 µg/mL (≈ 60.1 µM)	Active	80 µg/mL	> 500 µg/mL	2 µg/mL (≈ 3 µM)	15 µg/mL (≈ 22.5 µM)	> 100	2.5 µg/mL (≈ 3.75 µM)	–	–	–	–	–	–	–
